In US20180112006A1, “AGENTS, SYSTEMS AND METHODS FOR TREATING CANCER” (THE GENERAL HOSPITAL CORPORATION, priority 2015, published 2018):

Key:
[1] = tested on: hMSC-TR-TK; assay: Ganciclovir eradication of modified human MSCs in vitro; assay type: cell-based; parameters: dose or concentration left out as unconfirmed
Protocol: (§1) (FIG. 6A) Plot showing the viability of MBr-FmC cells co-cultured with engineered human NSCs expressing TRAIL (TR), both TRAIL and HSV-TK (TR-TK) or GFP as measured by Fluc activity in vitro. (FIG. 6B) Plot showing the viability of modified human NSCs treated with ganciclovir (10 mg/ml). (FIG. 6C) Plot showing the viability of MBr-FmC cells co-cultured with engineered human MSC expressing TRAIL (TR), both TRAIL and HSV-TK (TR-TK) or GFP. (FIG. 6D) Plot showing the viability of modified human MSCs treated with ganciclovir (10 mg/ml).
(§2) To make the therapeutic strategy more clinically relevant, human NSCs and human MSCs were used and the efficacy of the TRAIL/thymidine kinase system on metastatic tumor cells was tested. Human NSCs and MSCs were engineered to express secreted TRAIL (hNSC-TR/hMSC-TR) or co-express secreted TRAIL and HSV-TK (hNSC-TR-TK/hMSC-TR-TK), and established co-cultures of MBr-FmC with different proportions of modified human NSCs and MSCs.

[2] = tested on: NSC-TR-TK-GF1 cells; assay: Ganciclovir elimination of NSC-TR-TK-GF1 in vitro; assay type: cell-based, mouse; conditions: 10 mg/ml GCV
Protocol: (FIG. 11A) Representative phase and fluorescent images of NSC-TR-TK-GF1 in the presence or absence of 10 mg/ml GCV. Plot showing the Fluc activity of transduced cells in vitro. (FIG. 11B) Viability of MBr-FmC cells co-cultured with modified NSC at 1:1 ratio as measured by Fluc activity in vitro. The effects of NSC engineered with TK or TK-TR are shown. (FIG. 11C) Upper, outline of the experiment. Representative fluorescent images of metastatic MBr-RmC tumors in the mouse brain with or without NSC-TR-TK-GF1 administration to show post-tumor treatment (scale bar=100 μm).
To translate NSC-S-TRAIL therapy for brain metastasis into clinics, it is critical to follow the long-term fate of NSCs post-tumor treatment and ultimately, selectively eradicate therapeutic NSCs to avoid continuous access of therapeutic agent to normal brain tissue and to circumvent any malignant transformation of NSCs. To address this, NSC-S-TRAIL expressing cells were engineered to further express herpes simplex virus thymidine kinase (HSV-TK) and GFP-Fluc (GF1) (NSC-TR-TK-GF1) and tested for efficacy of thymidine kinase suicide therapy in vitro. […] Further, the efficacy of ganciclovir to eradicate NSCs in non-tumor bearing brain was tested. […] Next, the eradication of therapeutic NSCs post-tumor treatment in vivo was tested. NSC-TR-TK-GF1 expressing cells were intracranially injected into MBr-RmC tumor-bearing brains.

[3] = tested on: hNSC-TR-TK; assay: Ganciclovir eradication of modified human NSCs in vitro; assay type: cell-based; parameters: dose or concentration left out as unconfirmed
Protocol: as §1, §2

[4] = tested on: NSC-TR-TK-GF1 cells; assay: Ganciclovir eradication of NSC-TR-TK-GF1 in mouse brains, Fluc bioluminescence imaging; assay type: in vivo, mice; conditions: for eradication of NSCs in non-tumor bearing brain: ganciclovir 75 mg/kg i.p. daily
Protocol: Two hundred thousand NSC-TR-TK-GF1 cells were either intracranially or intracarotidly injected in nude mice. Seven days after intracranial injection, or 3 days after intracarotid injection, daily PBS or ganciclovir (75 mg/kg body weight) were administrated via intraperitoneal (i.p.) injection for 2 weeks. NSC fate was assessed by bioluminescence imaging at various time points. To assess the eradication of therapeutic NSC post-tumor treatment, MBr-RmC cells (50 000 cells/mouse) were intracranially injected in nude mice and tumor-bearing mice were injected intratumorally with NSC-TR-TK-GF1 (50 000 cells/mouse) in the mouse brain. Daily PBS or ganciclovir were administrated via intraperitoneal injection after 4 days of NSC injection and the fate of NSCs was assessed by bioluminescence imaging at different time points.

[5] = tested on: metastatic MBr cells; assay: TRAIL killing of tumor cells versus normal cells; assay type: cell-based

Compound | eradication of hMSC-TR-TK in vitro [1] | elimination of modified NSC in vitro (Fluc, GFP) [2] | eradication of hNSC-TR-TK in vitro [3] | eradication of therapeutic NSCs post-tumor treatment ([4]; MBr-RmC tumor-bearing brains, vs PBS) | eradication of NSCs in non-tumor bearing brain ([4]; NSCs implanted via intracranial route) | eradication of NSCs in non-tumor bearing brain ([4]; NSCs via intracarotid route) | killing of tumor cells versus normal cells [5]
Nc1nc(O)c2ncn(COC(CO)CO)c2n1 [ganciclovir] | successfully eradicated | eliminated | successfully eradicated | eradication of therapeutic NSC-TR-TK-GF1 | substantially eradicated | substantially eradicated | –
TRAIL | – | – | – | – | – | – | specifically killed the tumor cells instead of the normal cells
